Measurements published in US20220177462A1, “SUBSTITUTED HETEROCYCLIC AMIDE COMPOUND AND PREPARATION METHOD THEREFOR AND PHARMACEUTICAL USE THEREOF” (GENFLEET THERAPEUTICS (SHANGHAI) INC., priority 2019, published 2022).
Where two headings read alike, the source gives them in different places.

What was measured:
RIPK1 enzyme = molecular target: T1, RIPK1 enzyme (Homo sapiens, UniProt Q13546); test: Inhibitory activity of the compounds against RIPK1 enzyme (33P-ATP, MBP substrate); format: biochemical; details: 36 nM RIPK1, 0.33 mg/ml MBP, 155 μM P33-labeled ATP, room temperature 2 hours
T1 construct: purchased Eurofins 16-022
T1 sequence (Q13546 1-671): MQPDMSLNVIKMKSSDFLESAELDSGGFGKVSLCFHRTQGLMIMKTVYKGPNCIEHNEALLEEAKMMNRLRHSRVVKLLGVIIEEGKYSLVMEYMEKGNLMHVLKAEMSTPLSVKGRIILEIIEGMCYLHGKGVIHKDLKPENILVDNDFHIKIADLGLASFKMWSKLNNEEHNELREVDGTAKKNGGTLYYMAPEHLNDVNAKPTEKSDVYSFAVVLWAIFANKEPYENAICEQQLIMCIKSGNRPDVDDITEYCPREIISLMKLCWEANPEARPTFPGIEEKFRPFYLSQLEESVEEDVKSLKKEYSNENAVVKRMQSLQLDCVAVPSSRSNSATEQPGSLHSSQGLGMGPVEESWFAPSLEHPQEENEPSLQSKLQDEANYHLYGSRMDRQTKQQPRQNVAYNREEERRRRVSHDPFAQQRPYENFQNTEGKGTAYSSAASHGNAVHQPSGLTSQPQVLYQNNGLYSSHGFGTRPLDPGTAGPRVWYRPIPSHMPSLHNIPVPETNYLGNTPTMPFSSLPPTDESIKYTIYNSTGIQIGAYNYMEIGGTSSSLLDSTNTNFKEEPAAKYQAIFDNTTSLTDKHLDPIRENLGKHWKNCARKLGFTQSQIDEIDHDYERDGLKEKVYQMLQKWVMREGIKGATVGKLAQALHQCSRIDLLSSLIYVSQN
Description: The test compound was dissolved in DMSO to prepare a 10 mM stock solution. The stock solution was diluted in 3.16 folds with DMSO to a series of gradient concentrations. Then, the resultant solution was diluted in 50 folds with MOPS buffer pH 7.0 to prepare a working solution. The working solution was mixed with 36 nM RIPK1 (final concentration) and 0.33 mg/ml substrate MBP homogeneously. Thereafter, 10 mM magnesium ion and 155 μM P^33 isotopically labeled ATP were added for the reaction. The final concentration of DMSO was 2%. After the reaction was carried out at room temperature for 2 hours phosphoric acid was added to terminate the reaction. The final reaction system was tested using a liquid scintillation counter after treatment. The result obtained by subtracting a blank control from the tested value was converted to activity percentage as compared to the readout value of control group. The activity percentage was plotted against the final concentration of respective compound using a 4-parameter fitting to obtain the inhibitory IC50 of the compound against RIPK1 enzyme.

U937 cells = test: Inhibitory activity against programmed necroptosis of U937 cells induced by TNF-α; format: cell-based, human
Description: The U937 cell strain which was used in the following Testing Examples was derived from ATCC, No.: CRL-1593.2, batch No.: 63479999, culture medium: RPMI-1640+10% FBS.
The compound was dissolved in DMSO to prepare a 10 mM stock solution. The stock solution was diluted in 3.16 folds with DMSO to a series of gradient concentrations. Then, the resultant solution was diluted in 250 folds with a culture medium to prepare a working solution. The U937 cells were inoculated in a 384-well plate at 5000/well. The compound at respective concentration was added to each of the cells, and was mixed with the cells homogeneously. 100 ng/ml human TNF-α and 25 μM Q-VD-Oph were added simultaneously to induce programmed necroptosis of the cells. The final concentration of DMSO was 2%. The cells were placed in the incubator at 37° C. and 5% CO2 for further culture of 48 hours. Celltiter-Glo reagent was used for detection. After adequate pyrolysis reaction, the chemiluminescence readout value was recorded by a microplate reader. The survival rate was calculated from the detection results using the equation as follows: SR (%)=(RLU compound−RLU blank)/(RLU high control−RLU blank)×100%. The survival rate was plotted against the final concentration of respective compound using a 4-parameter fitting to calculate the inhibitory IC50 of the compound against programmed necroptosis of cells induced by TNF-a.

L929 cells = test: Inhibitory activity against programmed necroptosis of L929 cells induced by TNF-α; format: cell-based; details: Mus musculus, 30 ng/ml murine TNF-α and 15 μM Z-VAD, 6 hours, CellTiter-Glo survival rate, read-out: L929 AbIC50
Description: The compound was dissolve in DMSO to prepare a 10 mM stock solution. The stock solution was diluted in 3.16 folds with DMSO to a series of gradient concentrations. Then, the resultant solution was diluted in 100 folds with a culture medium to prepare a working solution. The L929 cells were inoculated in a 384-well plate at 10000/well. The compound at respective concentration was added to each of the wells, and was mixed with the cells homogeneously. 30 ng/ml murine TNF-α and 15 μM Z-VAD were added simultaneously to induce programmed necroptosis of the cells. The final concentration of DMSO was 2%. The cells were placed in an incubator at 37° C. and 5% CO2 for further culture of 6 hours. CellTiter-Glo reagent was used for detection. After adequate pyrolysis reaction, the chemiluminescence readout value was recorded by a microplate reader. The survival rate was calculated from the detection results using the equation as follows: SR (%)=(RLU compound −RLU blank)/(RLU high control−RLU blank)×100%. The survival rate was plotted against the final concentration of respective compound using a 4-parameter fitting to calculate the inhibitory IC50 of the compound against programmed necroptosis of cells induced by TNF-a.

[1] = read-out: U937 IC50, 100 ng/ml human TNF-α and 25 μM Q-VD-Oph, 48 hours, CellTiter-Glo survival rate
[2] = Homo sapiens, U-937, 48 h, 100 ng/ml human TNF-α and 25 μM Q-VD-Oph, 48 hours, CellTiter-Glo survival rate, read-out: U937 IC50

Row | Compound | IC50 (RIPK1 enzyme) | IC50 (L929 cells) | IC50 (U937 cells; [2]) | also measured
1 | COc1ncc(-c2ccc3nc(N)sc3c2)cc1C(=O)NC(C)c1ccccc1OC(F)(F)F (single isomer, unassigned) [Compound Z1-2] | 14 nM | 6 nM |  | IC50 (U937 cells; 100 ng/ml human TNF-α and 25 μM Q-VD-Oph, 48 hours, CellTiter-Glo survival rate, read-out: U937 IC50): 0.028 µM
2 | COc1ncc(-c2ccc3nc(NC(C)=O)sc3c2)cc1C(=O)NC(C)c1ccccc1OC(F)(F)F (single isomer, unassigned) [Compound Z5, 5-(2-acetylaminobenzothiazol-6-yl)-2-methoxy-N-(1-(2-(trifluoromethoxy)phenyl)ethyl)nicotinamide] | 29 nM |  |  | IC50 (U937 cells; [1]): 0.015 µM
3 | COc1ncc(-c2ccc3nc(NC(C)=O)sc3c2)cc1C(=O)NC(C)c1ccccc1OC(F)(F)F (single isomer, unassigned) [Compound Z5-1] | 28 nM |  |  | IC50 (U937 cells; [1]): 0.005 µM
4 | COc1ncc(-c2ccc3nc(NC(=O)C4CC4)sc3c2)cc1C(=O)NC(C)c1ccccc1OC(F)(F)F (single isomer, unassigned) [Compound Z6, 5-(2-(cyclopropylcarbonylamino)benzo[d]thiazol-6-yl)-2-methoxy-N-(1-(2-(trifluoromethoxy)phenyl)ethyl)nicotinamide] | 36 nM |  | 0.008 µM | 
5 | COc1ncc(-c2ccc3nc(NC(=O)C4CC4)sc3c2)cc1C(=O)N[C@@H](C)c1ccccc1OC(F)(F)F (single isomer, unassigned) [Compound Z6-1] | 60 nM |  | 0.003 µM | 
6 | C[C@H](c1ccccc1OC(F)(F)F)N1CCc2ncc(-c3ccc4nc(N)sc4c3)cc2C1=O (single isomer, unassigned) [Compound Z54-2] | 51 nM | < 3 nM |  | IC50 (U937 cells; Homo sapiens, U-937, 48 h, read-out: U937 IC50(μM), 100 ng/ml human TNF-α and 25 μM Q-VD-Oph, 48 hours, CellTiter-Glo survival rate): 0.001 µM
7 | COc1ncc(-c2ccc3nc(N)sc3c2)cc1C(=O)NCc1ccccc1OC(F)(F)F [Compound Z2, 5-(2-aminobenzo[d]thiazol-6-yl)-2-methoxy-N-(2-(trifluoromethoxy)benzyl)nicotinamide] | 23 nM |  | 0.038 µM | 
8 | COc1ncc(-c2ccc3nc(N)sc3c2)cc1C(=O)NC(C)c1cccc(OC(F)(F)F)c1 (centres unmarked) [Compound Z3, 5-(2-aminobenzo[d]thiazol-6-yl)-2-methoxy-N-(1-(3-(trifluoromethoxy)phenyl)ethyl)nicotinamide] | 32 nM |  |  | 
9 | COc1ncc(-c2ccc3nc(N)sc3c2)cc1C(=O)NCc1cccc(OC(F)(F)F)c1 [Compound Z4, 5-(2-aminobenzo[d]thiazol-6-yl)-2-methoxy-N-(3-(trifluoromethoxy)benzyl)nicotinamide] | 17 nM |  |  | 
10 | COc1ncc(-c2ccc3nc(N)sc3c2)cc1C(=O)N1CCC[C@H](Cc2ccc(F)cc2)C1 [Compound Z17-1] |  | 10 nM | 0.009 µM | 
11 | Cn1ncc2c(-c3ccn4nc(N)nc4c3)cc(C(=O)N3CCCC(Cc4ccc(F)cc4)C3)cc21 (centres unmarked) [Compound Z29, (4-(2-amino-[1,2,4]triazolo[1,5-a]pyridin-7-yl)-1-methyl-1H-indazol-6-yl)(3-(4-fluorobenzyl)piperidin-1-yl)methanone] |  | 12 nM | 0.007 µM | 
12 | Cn1ncc2c(-c3ccn4nc(N)nc4c3)cc(C(=O)NCc3cc(F)ccc3OC3CCCC3)cc21 [Compound Z31, 4-(2-amino-[1,2,4]triazolo[1,5-a]pyridin-7-yl)-N-(2-(cyclopentyloxy)-5-fluorobenzyl)-1-methyl-1H-indazole-6-carboxamide] |  | 41 nM | 0.002 µM | 
13 | COc1ncc(-c2ccc3nc(N)sc3c2)cc1C(=O)NCc1cc(F)cc(F)c1OCC(C)C [Compound Z49, 5-(2-aminobenzo[d]thiazol-6-yl)-N-(3,5-difluoro-2-isobutoxybenzyl)-2-methoxynicotinamide] |  | 37 nM | 0.006 µM | 

Continued, in another order:

Row | IC50 (RIPK1 enzyme) | Compound | IC50 (L929 cells) | IC50 (U937 cells; [2]) | also measured
14 | 84 nM | COc1ncc(C(=O)NC(C)c2ccccc2OC(F)(F)F)cc1-c1ccc2nc(N)sc2c1 (centres unmarked) [Compound Z7, 5-(2-aminobenzo[d]thiazol-6-yl)-6-methoxy-N-(1-(2-(trifluoromethoxy)phenyl)ethyl)nicotinamide] |  |  | 
15 | 60 nM | CC(NC(=O)c1cncc(-c2ccc3nc(N)sc3c2)c1)c1ccccc1OC(F)(F)F (centres unmarked) [Compound Z9, 5-(2-aminobenzo[d]thiazol-6-yl)-N-(1-(2-(trifluoromethoxy)phenyl)ethyl)nicotinamide] |  |  | 
16 | 64 nM | Cc1ncc(C(=O)NC(C)c2ccccc2OC(F)(F)F)cc1-c1ccc2nc(N)sc2c1 (centres unmarked) [Compound Z10, 5-(2-aminobenzo[d]thiazol-6-yl)-6-methyl-N-(1-(2-(trifluoromethoxy)phenyl)ethyl)nicotinamide] |  |  | 
17 | 39 nM | Nc1nc2ccc(-c3cnc4c(c3)C(=O)N(Cc3cc(OC(F)(F)F)ccc3F)CC4)cc2s1 [Compound Z55, 3-(2-aminobenzo[d]thiazol-6-yl)-6-(2-fluoro-5-(trifluoromethoxy)benzyl)-7,8-dihydro-1,6-naphthyridin-5(6H)-one] |  | 0.008 µM | 
18 | 36 nM | COc1ncc(-c2ccc3nc(NC(=O)C4CC4)sc3c2)cc1C(=O)NC(C)c1ccccc1OC(F)(F)F (centres unmarked) [Compound Z56, 5-(2-(cyclopropylformamido)benzo[d]thiazol-6-yl)-2-methoxy-N-(1-(2-(trifluoromethoxy)phenyl)ethyl)nicotinamide] |  | 0.008 µM | 
19 | 34 nM | Nc1nc2ccc(-c3cnc4c(c3)C(=O)N(Cc3cc(F)cc(F)c3OC3CC3)CC4)cc2s1 [Compound Z64, 3-(2-aminobenzo[d]thiazol-6-yl)-6-(2-cyclopropoxy-3,5-difluorobenzyl)-7,8-dihydro-1,6-naphthyridin-5(6H)-one] | 3 nM | 0.004 µM | 
20 | 43 nM | Nc1nc2ccc(-c3cnc4c(c3)C(=O)N(Cc3cc(C(F)(F)F)ccc3F)CC4)cc2s1 [Compound Z65, 3-(2-aminobenzo[d]thiazol-6-yl)-6-(2-fluoro-5-(trifluoromethyl)benzyl)-7,8-dihydro-1,6-naphthyridin-5(6H)-one] |  | 0.048 µM | 
